Data from article PMC11653107, “Development of a UPLC-MS/MS method for the determination of sulfatinib and its no interaction with myricetin in rats” (Frontiers in Pharmacology, 2024).
Like-named read-outs stand apart in the source and are kept apart here. One block for each compound: values may come before it.

Columns and labels:
[1] = Pharmacokinetics of sulfatinib in rats, DDI study with myricetin (UPLC-MS/MS of plasma); format: in vivo, Sprague-Dawley (SD) rats
Protocol: In the present assay, a Waters Xevo TQS triple quadrupole tandem mass spectrometer (Milford, MA, United States), connected to a Waters Acquity UPLC I class system (Milford, MA, United States) was applied in the method. The parameters of mass spectrometry were determined as follows before analysis: capillary voltage 2.0 kV, desolvation gas 1000 L/h, collision gas 0.15 mL/min, desolvation temperature 600°C and conical gas 150 L/h. Seperations of sulfatinib and IS were done on an Acquity UPLC BEH C18 (2.1 mm × 50 mm, 1.7 µm) set at 40°C. The autosampler used to analyze all samples was held at 10°C. The measurements were conducted using a multiple reaction monitoring (MRM) scanning mode with an electrospray ionization (ESI) source in positive ion mode. At a flow rate of 0.40 mL/min, the mobile phase was consisted of acetonitrile (A) and 0.1% formic acid aqueous solution (B), with a linear gradient scheme as follows: 0–0.5 min, A/B = 10/90%; 0.5–1.0 min, A/B = 90/10%; 1.0–1.4 min, A/B = 90/10%; 1.4–1.5 min, A/B = 10/90%; 1.5–2.0 min, A/B = 10/90%. The parameters optimized for mass spectrometry of sulfatinib and IS included cone voltages of 20 V and 30 V, and collision energies of 25 eV and 28 eV, respectively. The parent and daughter ions of sulfatinib and IS were m/z 480.98 → 329.02 and m/z 426.87 → 369.84, respectively (as indicated in Table 1).
The protein was precipitated by mixing 300 µL of acetonitrile and 10 µL of IS working solution into 100 µL of plasma. After a full vortex for 2.0 min, the mixture was centrifuged at 4°C for 10 min (13,000 rpm). Afterwards, the supernatant of 100 µL was moved into a vial, with a 2 µL injected and analyzed by UPLC-MS/MS.
Ten male Sprague-Dawley (SD) rats for this experiment, weighting 200 ± 10 g, were purchased from the Experimental Animal Center of The First Affiliated Hospital of Wenzhou Medical University (Zhejiang, China). Prior to the start of the investigation, all rats were domesticated under laboratory conditions for 1 week to minimize their suffering. The animals were kept in an appropriate environment (temperature, humidity, light conditions, freely available food and water). The experimental process of the animals was strictly adhered to the regulations for the care and use of laboratory animals as reviewed and approved by the Ethics Committee of The First Affiliated Hospital of Wenzhou Medical University (Wenzhou, China). The preparation of sulfatinib for gavage was carried out using 0.5% carboxymethylcellulose sodium (CMC-Na) solution. Half an hour after the administration of either myricetin or the same dose of 0.5% CMC-Na solution, 10 rats were simultaneously administered orally with sulfatinib (30 mg/kg). At 0.25, 0.5, 0.75, 1, 1.5, 2, 3, 4, 6, 8, 12, 24, 48 h, approximately 0.3 mL of blood was obtained from the tail vein of SD rats and transferred into heparinized polyethylene tubes. A 100 µL of plasma was obtained by centrifuging the blood at 13,000 rpm for 8 min and stored at −80°C for sample treatment.
Origin 9.0 (Originlab Inc., Northampton, MA, United States) was used in this experiment to plot the mean concentration of sulfatinib versus time in plasma. DAS software (Drug and Statistics, Version 3.0, China) was applied to fit the non-compartmental model of sulfatinib, and the main pharmacokinetic parameters of sulfatinib were obtained. Pharmacokinetics were compared for each group using SPSS software (version 24.0, Chicago, United States, SPSS Inc.) using the independent samples t-test. At p < 0.05, the difference was significant.

[2] = Stability of sulfatinib in rat plasma QCs under storage and processing conditions; conditions: analyzer 10°C for 4 h, −80°C for 3 weeks, room temperature for 3 h, three freeze-thaw cycles; QCs 2, 800, 1,600 ng/mL
Protocol: The stability was investigated by repeating the assay five times under different storage conditions for three rat plasma QCs (2, 800 and 1,600 ng/mL). The conditions included stability in the analyzer (4 h, 10°C), long-term storage ([…], 3 weeks), short-term storage (3 h, room temperature) and freeze-thaw cycles (three complete times).

[3] = set-up: method as in Li et al., 2020a; conditions: healthy subjects, single oral intake of 300 mg; ref Li et al., 2020a; cited from earlier work
[4] = cited from earlier work
[5] = test system: cytochrome P450 3A4 (CYP3A4); set-up: method as in Li et al., 2020b; conditions: in vitro; ref Li et al., 2020b; cited from earlier work
CYP3A4 = test system: CYP3A4; set-up: method as in Li et al., 2018; conditions: studies in rats; ref Li et al., 2018; cited from earlier work
CYP2C9 = test system: CYP2C9; set-up: method as in Li et al., 2018; conditions: studies in rats; ref Li et al., 2018; cited from earlier work
[6] = male, Sprague-Dawley, rat, in vivo, po, 30 mg/kg

AUC0→t [1, 6]: 9,168.6 ± 2,531.4 ng/mL·h
AUC0→∞ [1, 6]: 9,171.6 ± 2,532.4 ng/mL·h
CLz/F [1, 6]: 58.3 ± 18.3 mL/min/kg
Tmax [1, 6]: 4.4 ± 0.9 h
AUC(0-t) ([1]; male, Sprague-Dawley, rat, in vivo, po, 30 mg/kg, AUC0→t): 9250 ng·h/mL
AUC(0-inf) ([1]; male, Sprague-Dawley, rat, in vivo, po, 30 mg/kg, AUC0→∞): 9260 ng·h/mL
CL/F ([1]; male, Sprague-Dawley, rat, in vivo, po, 30 mg/kg, CLz/F): 55 mL/min/kg
Cmax ([1]; male, Sprague-Dawley, rat, in vivo, po, 30 mg/kg, Cmax): 1040 ng/mL
Tmax ([1]; male, Sprague-Dawley, rat, in vivo, po, 30 mg/kg, Tmax): 3.4 ± 1.7 h
half-life ([1]; male, Sprague-Dawley, rat, in vivo, po, 30 mg/kg, t1/2): 3.64 h
AUC ([1]; rat, in vivo, po, 30 mg/kg): 8970 ng·h/mL
time to Cmax ([1]; rat, in vivo, po, 30 mg/kg): approximately 3.8 h
stability in rat plasma [2]: satisfied
SMILES: Cc1cc2cc(Oc3ccnc(Nc4cccc(CS(=O)(=O)NCCN(C)C)c4)n3)ccc2[nH]1 [Sulfatinib]
AUC [3]: 2670 ng·h/mL
Cmax [3]: 205 ng/mL
t1/2 [3]: 17.1 h
time to Cmax [3]: approximately 2 h
serum level of the original drug ([4]; after oral administration, ref Li et al., 2020b): about 40.3%
fecal excretion ([4]; excretion route mainly fecal, ref Lu et al., 2024, Xu et al., 2017, Li et al., 2020a): 88%
enzyme mediating the metabolism [5]: major enzyme mediating the metabolism

SMILES: O=c1c(O)c(-c2cc(O)c(O)c(O)c2)oc2cc(O)cc(O)c12 [myricetin, Myricetin]
effect of myricetin on AUC0→∞ and Cmax of sulfatinib ([1]; rats, 50 mg/kg myricetin orally half an hour before 30 mg/kg sulfatinib, P > 0.05): no significant effect
inhibition of CYP3A4 (CYP3A4): inhibited
inhibition of CYP2C9 (CYP2C9): inhibited
